Test results as given in patent US8093209B2, “Methods of suppressing microglial activation and systemic inflammatory responses” (Cognosci, Incorporated, priority 2002, dated 2012).

Experiments:
[1] = test system: enriched microglia primary cultures from apoE deficient mouse pups; experiment: LPS-stimulated nitric oxide (nitrite) secretion by enriched microglia primary cultures; type: cell-based; conditions: peptide 0 μM to 1000 μM, LPS 100 ng/ml, after 48 hours
Description: Culture preparation and characterization: Mixed glial cell cultures were prepared from: (a) wildtype (C57B16; Jackson Laboratories) mouse pups; (b) ApoE deficient mutant mouse pups (ApoE-deficient mice), and (c) transgenic mouse pups expressing human ApoE3 but not murine ApoE (ApoE3 mice). See Xu et al., Neurobiol. Dis. 3:229 (1996) regarding the creation and characterization of the transgenic mice. Mixed glial cell cultures were prepared as has been described. See McMillian et al., Neurochem. 58:1308 (1992); Laskowitz et al., J. Neuroimmunol. 76:70 (1997). Briefly, brains were removed from 2-4 day old pups, cleaned of membranes and blood vessels, mechanically dispersed in Ca^+2-free media, and collected by centrifugation. Cells were then plated in DMEM/F12 (containing 10% fetal calf serum, 1% penicillin/streptomycin, Gibco #15070), one brain per 25 cm flask. […]
Nitrite Quantification The production of NO was assessed by measuring the accumulation of nitrite, which was quantified using a calorimetric reaction with Griess reagent (0.1% N-1-naphthylethylenediamine dihydrochloride, 1% sulfanilamide, and 2.5% H3PO4). Absorbance was measured at 570 nm by spectrophotometry. […]
Enriched microglia primary cultures were prepared from the brains of apoE deficient mouse pups as described in Example 1, above. […] Nitric oxide production was assessed as described in Example 1. […]

[2] = test system: primary hippocampal neurons; conditions: cited from earlier work

**Q.** For “LRKLRKRLL LRKLRKRLL (LRKLRKRLLLRKLRKRLL; fragment of ApoE containing LDL receptor binding site) [SEQ ID NO:3]”, which “nitric oxide secretion by activated microglia” value [1] is on record?
**A.** dose-dependent decrease in nitric oxide secretion

**Q.** And the neuronal cell death [2]?
**A.** induced neuronal cell death
